# Data as given in PMC12519282, “Reduction of Negative Charge in Mercaptoacetyl-Based Chelators Influences the Biodistribution of Prostate-Specific Membrane Antigen-Targeting Pseudopeptides Labeled with Technetium-99m” (ACS Pharmacology & Translational Science, 2025).
# Like-named read-outs stand apart in the source and are kept apart here. Marks after values point to notes of the source that are not given here.
# Key:
# PSMA [1] = molecular target: T1, PSMA (Homo sapiens, UniProt Q04609); settings: cited from earlier work
# T1 construct: expressed in transfected cells; host or cells: PC3-pip (PSMA-transfected PC-3 prostate carcinoma cells), from Prof; Martin G. Pomper, Johns Hopkins University
# PSMA [2] = molecular target: T1, PSMA; assay: binding kinetics in real time on living PC3-pip cells (LigandTracer Yellow); settings: 5 nM tracer, 1:2 model (1:1 for BQ0413)
# Method: The binding kinetics of technetium-99m-labeled BQ0413, BQ0500, and BQ0501 were determined in PC3-pip cells in real-time using LigandTracer Yellow (Ridgeview Instruments AB, Uppsala, Sweden). The activity binding was recorded with 5 nM radiolabeled tracers for 150 min. After the binding kinetics were measured, the medium containing the labeled tracer was replaced with fresh medium, and the dissociation was monitored over 7 h. The association rate (k a) and the dissociation rate (k d) were computed using a 1:2 kinetic binding model in TraceDrawer software (Ridgeview Instruments AB, Uppsala, Sweden), and the equilibrium dissociation constant K D was calculated.
# PC3-pip xenografts [3] = assay: biodistribution and tumor targeting in PC3-pip tumor-bearing mice; format: in vivo; settings: PC3-pip tumor-bearing mice, 5 nmol/mouse iv
# Description: The injected masses for the in vivo experiments were chosen based on the findings for [^99mTc]-Tc-BQ0413: to study the general biodistribution of radiolabeled tracers in normal mice (NMRI), 40 pmol of tracer was used to avoid blocking of PSMA-mediated uptake in kidneys and salivary glands, to study tumor targeting, 5 nmol of tracer was used to decrease uptake in PSMA-expressing organs.
# PSMA-expressing PCa xenografts were implanted in BALB/c nu/nu mice by subcutaneous injection of the PC3-pip cell suspension in PBS (10^7 cells/animal in 100 μL). The average animal weight in the experiment was 18 ± 2 g. The average tumor weight was 0.4 ± 0.2 g. For in vivo specificity control, 10^7 cells/animal PSMA-negative PC-3 cells were implanted. The average animal weight was 18 ± 1 g. The average tumor weight was 0.1 ± 0.1 g. Four mice per data point were used in the in vivo experiments.
# For tumor-bearing mice, each mouse was intravenously injected with 5 nmol of [^99mTc]-Tc-BQ0413, [^99mTc]-Tc-BQ0500, and [^99mTc]-Tc-BQ0501 (60 kBq; the mass of the injected compound was adjusted with an unlabeled tracer). The mice were euthanized after lethal intraperitoneal injection of ketamine/xylazine, followed by exsanguination 1 and 3 h pi, similarly to the procedure described above.
# physchem = format: physicochemical; settings: pH 7.4
# Method: To evaluate the label’s stability, 10 μL (0.25 μg) of radiolabeled conjugates was incubated with 300× molar excess of cysteine or with PBS for 1 h at room temperature. The test was run in triplicate. The release of free technetium-99m was controlled by using iTLC and radio-HPLC analysis. The stability in serum was analyzed by mixing the radioconjugates (0.25 μg in 10 μL) with murine serum or PBS (40 μL) as a control. The samples were incubated for 1 h at 37 °C and analyzed by iTLC. The experiment was performed in triplicate. The octanol–water distribution coefficient (Log D) was determined experimentally by the addition of 100 pmol of the radiolabeled tracer to an Eppendorf tube containing PBS (500 μL) and n-octanol (500 μL), pH ∼ 7.4. The solution was vortexed and centrifuged, and aliquots (50 μL) from each phase were collected and measured using a gamma counter. The experiment was performed in triplicate.
# PC3-pip xenografts [4] = settings: in vivo; cited from earlier work
# T1 sequence (Q04609 whole entry): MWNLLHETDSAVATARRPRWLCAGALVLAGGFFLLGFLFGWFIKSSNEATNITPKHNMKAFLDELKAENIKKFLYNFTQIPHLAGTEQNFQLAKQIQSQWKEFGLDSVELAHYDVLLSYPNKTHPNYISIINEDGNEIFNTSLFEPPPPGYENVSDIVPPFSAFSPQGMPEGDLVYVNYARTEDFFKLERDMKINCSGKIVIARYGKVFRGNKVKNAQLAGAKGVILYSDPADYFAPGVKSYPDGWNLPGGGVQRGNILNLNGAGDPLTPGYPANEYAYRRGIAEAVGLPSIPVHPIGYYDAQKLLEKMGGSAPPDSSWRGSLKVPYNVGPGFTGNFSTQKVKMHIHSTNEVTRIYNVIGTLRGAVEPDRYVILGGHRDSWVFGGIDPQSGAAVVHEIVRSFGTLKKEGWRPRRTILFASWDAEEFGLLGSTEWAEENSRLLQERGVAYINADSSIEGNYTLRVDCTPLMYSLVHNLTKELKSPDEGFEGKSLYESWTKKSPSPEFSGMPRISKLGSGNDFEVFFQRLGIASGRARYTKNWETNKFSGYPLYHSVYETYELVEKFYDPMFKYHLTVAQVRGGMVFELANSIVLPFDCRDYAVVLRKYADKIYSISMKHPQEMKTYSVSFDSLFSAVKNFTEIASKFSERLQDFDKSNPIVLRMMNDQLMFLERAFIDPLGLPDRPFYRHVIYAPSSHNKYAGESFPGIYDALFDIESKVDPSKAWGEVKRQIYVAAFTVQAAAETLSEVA
smiles,measurement,setting,value
O=C(O)CCc1ccc(O)c(CN(CCN(CC(=O)O)Cc2cc(CCC(=O)NCCCCCC(=O)NCCCC[C@H](NC(=O)N[C@@H](CCC(=O)O)C(=O)O)C(=O)O)ccc2O)CC(=O)O)c1 [PSMA-11],Kd,"PSMA [1]; nonlabeled PSMA-11, ref 29 (inferred, citation mark not shown)",0.5 ± 0.2 nM
"CC(=O)NC(CCCCNC(=O)CNC(=O)C(CCC(=O)O)NC(=O)C(CCC(=O)O)NC(=O)C(CCC(=O)O)NC(=O)CS)C(=O)NCCCCCCCC(=O)NC(Cc1ccc(O)cc1)C(=O)NC(Cc1ccc2ccccc2c1)C(=O)NCCCCC(NC(=O)NC(CCC(=O)O)C(=O)O)C(=O)O (stereo not shown) [[^99mTc]Tc-BQ0413, metal not drawn, reference compound]",B max1 (binding maximum),PSMA [2],947 CPS
same,Kd,PSMA [2]; read-out: K D1,0.089 nM
same,activity in carcass,PC3-pip xenografts [3]; 1 h pi,8 ± 2 ^b %IA/sample
same,activity in intestines with content,PC3-pip xenografts [3]; 1 h pi,1.7 ± 0.4 %IA/sample
same,activity uptake in blood,PC3-pip xenografts [3]; 1 h pi,1.0 ± 0.3 ^b %IA/g
same,activity uptake in bone,PC3-pip xenografts [3]; 1 h pi,0.9 ± 0.3 ^b %IA/g
same,activity uptake in kidney,PC3-pip xenografts [3]; 1 h pi,23 ± 3 ^b %IA/g
same,activity uptake in liver,PC3-pip xenografts [3]; 1 h pi,1.3 ± 0.4 ^b %IA/g
same,activity uptake in lung,PC3-pip xenografts [3]; 1 h pi,1.2 ± 0.2 ^b %IA/g
same,activity uptake in muscle,PC3-pip xenografts [3]; 1 h pi,0.3 ± 0.1 ^b %IA/g
same,activity uptake in pancreas,PC3-pip xenografts [3]; 1 h pi,0.6 ± 0.1 ^b %IA/g
same,activity uptake in salivary gland,PC3-pip xenografts [3]; 1 h pi,1.4 ± 0.2 ^b %IA/g
same,activity uptake in small intestines,PC3-pip xenografts [3]; 1 h pi,0.5 ± 0.1^b %IA/g
same,activity uptake in spleen,PC3-pip xenografts [3]; 1 h pi,1.9 ± 0.8 %IA/g
same,activity uptake in stomach,PC3-pip xenografts [3]; 1 h pi,1.5 ± 0.4 %IA/g
same,activity uptake in tumor,PC3-pip xenografts [3]; 1 h pi,19 ± 4 %IA/g
same,tumor-to-blood ratio,PC3-pip xenografts [3]; 1 h pi,22 ± 12 ^b
same,tumor-to-bone ratio,PC3-pip xenografts [3]; 1 h pi,27 ± 17 ^b
same,tumor-to-kidney ratio,PC3-pip xenografts [3]; 1 h pi,0.9 ± 0.3 ^b
same,tumor-to-liver ratio,PC3-pip xenografts [3]; 1 h pi,17 ± 9 ^b
same,tumor-to-lung ratio,PC3-pip xenografts [3]; 1 h pi,16 ± 5 ^b
same,tumor-to-muscle ratio,PC3-pip xenografts [3]; 1 h pi,62 ± 25 ^b
same,tumor-to-pancreas ratio,PC3-pip xenografts [3]; 1 h pi,38 ± 5 ^b
same,tumor-to-salivary gland ratio,PC3-pip xenografts [3]; 1 h pi,14 ± 3 ^b
same,tumor-to-small intestines ratio,PC3-pip xenografts [3]; 1 h pi,41 ± 17 ^b
same,tumor-to-spleen ratio,PC3-pip xenografts [3]; 1 h pi,9 ± 3 ^b
same,tumor-to-stomach ratio,PC3-pip xenografts [3]; 1 h pi,13 ± 2 ^b
same,activity in carcass,PC3-pip xenografts [3]; 3 h pi,1.7 ± 0.3 %IA/sample
same,activity in intestines with content,PC3-pip xenografts [3]; 3 h pi,1.7 ± 0.2 %IA/sample
same,activity uptake in blood,PC3-pip xenografts [3]; 3 h pi,0.17 ± 0.04 %IA/g
same,activity uptake in bone,PC3-pip xenografts [3]; 3 h pi,0.2 ± 0.1 %IA/g
same,activity uptake in kidney,PC3-pip xenografts [3]; 3 h pi,9 ± 2 %IA/g
same,activity uptake in liver,PC3-pip xenografts [3]; 3 h pi,0.3 ± 0.1 %IA/g
same,activity uptake in lung,PC3-pip xenografts [3]; 3 h pi,0.3 ± 0.1 %IA/g
same,activity uptake in muscle,PC3-pip xenografts [3]; 3 h pi,0.06 ± 0.02 %IA/g
same,activity uptake in pancreas,PC3-pip xenografts [3]; 3 h pi,0.13 ± 0.02 %IA/g
same,activity uptake in salivary gland,PC3-pip xenografts [3]; 3 h pi,0.5 ± 0.1 %IA/g
same,activity uptake in small intestines,PC3-pip xenografts [3]; 3 h pi,0.2 ± 0.1 %IA/g
same,activity uptake in spleen,PC3-pip xenografts [3]; 3 h pi,0.9 ± 0.5 %IA/g
same,activity uptake in stomach,PC3-pip xenografts [3]; 3 h pi,0.6 ± 0.2 %IA/g
same,activity uptake in tumor,PC3-pip xenografts [3]; 3 h pi,17 ± 3 %IA/g
same,tumor-to-blood ratio,PC3-pip xenografts [3]; 3 h pi,94 ± 3
same,tumor-to-bone ratio,PC3-pip xenografts [3]; 3 h pi,114 ± 29
same,tumor-to-kidney ratio,PC3-pip xenografts [3]; 3 h pi,1.9 ± 0.3
same,tumor-to-liver ratio,PC3-pip xenografts [3]; 3 h pi,48 ± 5
same,tumor-to-lung ratio,PC3-pip xenografts [3]; 3 h pi,52 ± 8
same,tumor-to-muscle ratio,PC3-pip xenografts [3]; 3 h pi,284 ± 19
same,tumor-to-pancreas ratio,PC3-pip xenografts [3]; 3 h pi,135 ± 11
same,tumor-to-salivary gland ratio,PC3-pip xenografts [3]; 3 h pi,31 ± 3
same,tumor-to-small intestines ratio,PC3-pip xenografts [3]; 3 h pi,126 ± 57
same,tumor-to-spleen ratio,PC3-pip xenografts [3]; 3 h pi,16 ± 4
same,tumor-to-stomach ratio,PC3-pip xenografts [3]; 3 h pi,24 ± 2
same,Log D (octanol–water distribution coefficient),physchem,−2.5 ± 0.1
same,excretion pathway,PC3-pip xenografts [4],renal
same,tumor uptake,PC3-pip xenografts [4],33 ± 3%IA/g (3 h)
same,tumor-to-blood ratio,PC3-pip xenografts [4],314 ± 73 (3 h)
same,Kd,"PSMA [1]; PC3-pip, ref 15 (inferred, reference cell empty)",0.033 nM
